Data as given in ChEMBL document CHEMBL1201862, “PubChem BioAssay data set” (2004).
Calls of active or inactive are those of the source.

Tests used:
[1] = target: T1, Corticotropin-releasing factor receptor 2/Corticotropin-releasing factor-binding protein (Homo sapiens, UniProt P24387+Q13324); experiment: activators of CRF receptor 2 with binding protein – uHTS hits, confirmation (AID 602473); format: functional; details: read-out: EC50_Mean
T1 sequence (Q13324 whole entry): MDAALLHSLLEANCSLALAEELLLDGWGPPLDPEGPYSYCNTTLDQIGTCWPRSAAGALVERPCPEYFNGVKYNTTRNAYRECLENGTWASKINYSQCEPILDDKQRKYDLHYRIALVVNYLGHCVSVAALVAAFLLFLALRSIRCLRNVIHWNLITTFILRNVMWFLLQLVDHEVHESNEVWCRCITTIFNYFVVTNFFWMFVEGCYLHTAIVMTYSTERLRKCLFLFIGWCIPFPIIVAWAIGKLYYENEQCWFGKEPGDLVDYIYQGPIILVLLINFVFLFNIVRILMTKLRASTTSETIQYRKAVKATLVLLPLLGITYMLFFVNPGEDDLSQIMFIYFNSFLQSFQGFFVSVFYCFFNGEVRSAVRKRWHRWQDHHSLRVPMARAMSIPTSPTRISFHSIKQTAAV
T1 sequence (P24387 whole entry): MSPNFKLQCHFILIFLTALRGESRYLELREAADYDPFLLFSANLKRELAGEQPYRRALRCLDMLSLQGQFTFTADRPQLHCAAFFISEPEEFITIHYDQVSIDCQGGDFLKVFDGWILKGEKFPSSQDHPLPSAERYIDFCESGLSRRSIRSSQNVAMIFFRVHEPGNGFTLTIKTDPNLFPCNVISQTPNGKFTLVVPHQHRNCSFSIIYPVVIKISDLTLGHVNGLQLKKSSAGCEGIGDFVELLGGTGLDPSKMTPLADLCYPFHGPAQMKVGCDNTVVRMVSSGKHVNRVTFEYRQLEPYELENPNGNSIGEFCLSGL

[2] = target: T1, Corticotropin-releasing factor receptor 2/Corticotropin-releasing factor-binding protein; experiment: Dose Response confirmation of uHTS hits for small molecule antagonists of the CRF-binding protein and CRF-R2 receptor complex.; format: functional; details: read-out: IC50_Mean
[3] = target: Cytochrome P450 3A4 (Homo sapiens, UniProt P08684);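 also: CYP3A4 tested as one member of a cytochrome P450 panel screen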
[4] = target: T2, Leucine aminopeptidase (Plasmodium falciparum 3D7, UniProt Q8IL11); experiment: P. falciparum M17LAP inhibitors, primary screen, biochemical, fluorogenic H-Leu-NHMec substrate, 1536-well (AID 1619); format: functional
T2 sequence (Q8IL11 whole entry): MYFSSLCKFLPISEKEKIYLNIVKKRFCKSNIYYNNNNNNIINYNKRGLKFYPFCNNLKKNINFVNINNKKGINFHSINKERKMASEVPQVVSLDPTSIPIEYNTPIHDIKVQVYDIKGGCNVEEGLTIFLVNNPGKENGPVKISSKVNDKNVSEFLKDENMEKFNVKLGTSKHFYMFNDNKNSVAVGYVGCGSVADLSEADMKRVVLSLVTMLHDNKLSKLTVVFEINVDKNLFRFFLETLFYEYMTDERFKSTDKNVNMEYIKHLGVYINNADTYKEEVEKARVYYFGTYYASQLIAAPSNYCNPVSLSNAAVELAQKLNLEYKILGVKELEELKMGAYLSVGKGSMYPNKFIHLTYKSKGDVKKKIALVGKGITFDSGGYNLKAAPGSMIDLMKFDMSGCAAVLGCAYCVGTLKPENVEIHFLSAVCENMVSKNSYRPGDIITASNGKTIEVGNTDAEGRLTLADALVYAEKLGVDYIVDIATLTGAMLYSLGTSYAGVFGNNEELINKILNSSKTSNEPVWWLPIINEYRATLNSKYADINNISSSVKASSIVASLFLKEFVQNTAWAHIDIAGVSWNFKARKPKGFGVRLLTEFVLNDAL

[5] = microbe, parasite or virus in culture; format: functional; details: Mycobacterium tuberculosis
[6] = target: T3, Calpain-2 catalytic subunit (Sus scrofa, UniProt P43367); experiment: pig calpain II inhibitor potency, dose response, biochemical, fluorogenic peptide substrate (AID 1420); format: functional
T3 sequence (P43367 whole entry): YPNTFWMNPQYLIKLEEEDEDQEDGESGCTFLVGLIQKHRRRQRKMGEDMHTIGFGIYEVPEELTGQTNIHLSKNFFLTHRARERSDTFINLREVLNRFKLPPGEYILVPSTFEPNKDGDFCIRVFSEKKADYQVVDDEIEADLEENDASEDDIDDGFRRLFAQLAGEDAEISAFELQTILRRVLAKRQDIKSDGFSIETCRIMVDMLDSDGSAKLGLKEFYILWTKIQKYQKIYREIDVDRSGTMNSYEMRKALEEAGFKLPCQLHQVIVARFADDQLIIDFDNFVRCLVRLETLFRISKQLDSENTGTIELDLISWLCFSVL

[7] = system: Streptococcus; experiment: Group A Streptococcus viability loss, dose response, counter-screen for streptokinase expression inhibitor project, luminescence, BacTiterGlo (AID 1915); format: functional, organism-based;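 also: potency for reduction of bacterial viability or growth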
[8] = system: Streptococcus sp. 'group A'; experiment: growth inhibition of control SK(-) GAS strain, dose response, counter-screen for streptokinase expression inhibitor project, luminescence, kanamycin, BacTiterGlo, confirmation (AID 1900); format: functional, organism-based
[9] = Shn3 3'UTR reporter inhibitors, dose response, cell-based, Clone20 osteoblasts, firefly luciferase, cherry-picked (AID 624132); format: functional;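 also: firefly luciferase luminescence from reporter carrying the Shn3 3'UTR in osteoblasts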
[10] = target: T4, Streptokinase A (Streptococcus pyogenes serotype M1, UniProt P10520); experiment: S. pyogenes streptokinase expression inhibitors, potency, dose response, plasminogen activation absorbance, OD405 (AID 1914); format: functional, Streptococcus pyogenes M1 GAS;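 also: secreted streptokinase activity via plasminogen activation per viability signal from cell pellet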
T4 sequence (P10520 whole entry): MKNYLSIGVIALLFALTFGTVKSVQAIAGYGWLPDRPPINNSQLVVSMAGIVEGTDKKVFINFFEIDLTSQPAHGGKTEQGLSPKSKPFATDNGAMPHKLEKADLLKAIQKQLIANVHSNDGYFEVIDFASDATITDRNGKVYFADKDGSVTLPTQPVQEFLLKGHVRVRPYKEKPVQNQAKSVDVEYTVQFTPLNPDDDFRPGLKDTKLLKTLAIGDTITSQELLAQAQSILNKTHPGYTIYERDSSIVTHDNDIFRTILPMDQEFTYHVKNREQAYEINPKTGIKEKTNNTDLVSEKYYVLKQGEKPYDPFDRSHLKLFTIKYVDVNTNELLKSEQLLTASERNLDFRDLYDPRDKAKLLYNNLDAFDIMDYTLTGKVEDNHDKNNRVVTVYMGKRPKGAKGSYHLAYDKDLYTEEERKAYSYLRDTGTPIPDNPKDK

[11] = control 3'UTR Renilla luciferase suppression, dose response, counter-screen for Shn3 inhibitor project, cell-based, Clone20-Shn3RL, cherry-picked (AID 624133); format: functional
[12] = target: T5, Heat shock factor protein 1 (Mus musculus, UniProt P38532); experiment: HSF1 potentiators in luciferase reporter cells, confirmation, cell-based, NIH3T3, luminescence, dose retest (AID 435004); format: functional;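 also: stress induced by proteasome inhibitor MG132 added 30 min after compound; luciferase reporter driven by HSF1 response element in NIH3T3 cells; actives raise luminescence as potentiators of the MG132 stress response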
T5 sequence (P38532 whole entry): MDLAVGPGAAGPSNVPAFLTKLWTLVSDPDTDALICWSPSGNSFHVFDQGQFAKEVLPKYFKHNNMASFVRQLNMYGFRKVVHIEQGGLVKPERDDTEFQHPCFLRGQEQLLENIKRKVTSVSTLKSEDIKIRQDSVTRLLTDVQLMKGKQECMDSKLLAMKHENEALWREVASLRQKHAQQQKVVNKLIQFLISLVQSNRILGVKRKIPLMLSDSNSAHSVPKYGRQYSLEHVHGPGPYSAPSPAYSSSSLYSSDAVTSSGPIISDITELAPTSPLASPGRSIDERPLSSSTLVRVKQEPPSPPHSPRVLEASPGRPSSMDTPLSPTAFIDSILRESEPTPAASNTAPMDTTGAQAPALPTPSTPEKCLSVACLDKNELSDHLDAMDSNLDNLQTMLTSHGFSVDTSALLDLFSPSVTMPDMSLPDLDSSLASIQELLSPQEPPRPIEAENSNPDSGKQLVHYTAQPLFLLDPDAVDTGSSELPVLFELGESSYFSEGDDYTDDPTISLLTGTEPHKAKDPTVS

[13] = P. falciparum Dd2 growth inhibitors, dose response, SYBR Green, cherry-picked samples (AID 1159567); format: functional, cell-based

Cytochrome P450 3A4, sequence (P08684 whole entry): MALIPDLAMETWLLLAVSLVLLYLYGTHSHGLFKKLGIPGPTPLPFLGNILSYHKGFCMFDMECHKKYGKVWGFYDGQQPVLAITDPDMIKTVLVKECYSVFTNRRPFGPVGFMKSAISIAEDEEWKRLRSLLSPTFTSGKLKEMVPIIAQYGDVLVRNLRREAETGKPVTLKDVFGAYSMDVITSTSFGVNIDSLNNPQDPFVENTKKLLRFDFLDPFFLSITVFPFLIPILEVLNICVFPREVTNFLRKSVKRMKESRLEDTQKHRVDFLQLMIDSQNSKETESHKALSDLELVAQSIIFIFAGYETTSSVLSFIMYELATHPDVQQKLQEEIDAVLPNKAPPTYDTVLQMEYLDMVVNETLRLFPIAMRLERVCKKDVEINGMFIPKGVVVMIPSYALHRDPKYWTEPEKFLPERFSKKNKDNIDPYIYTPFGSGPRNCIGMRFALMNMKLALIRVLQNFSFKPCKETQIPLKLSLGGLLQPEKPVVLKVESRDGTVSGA

CCN(CC)CCN/C(C)=C1\C(=O)NC(=O)N(c2ccccc2OC)C1=O
EC50 [1]: > 53 µM (inactive)
IC50 [2]: > 47.1 µM (inactive)

Cc1ccc(S(=O)(=O)NC(=O)CSc2nc3ccccc3s2)cc1
AC50 [3]: 14.1 µM (inconclusive)
IC50 [4]: 7.77 µM (active)

O=C(Nc1ccc(C(=O)O)cc1)Nc1cccc([N+](=O)[O-])c1
IC50 [4]: 16.1 µM (active)

Cc1ccc2[nH]c(=O)c(=NNc3ccccc3)cnc2c1
CC50 [5]: > 40 µM (active)

CC(C)(C)OC(=O)NCCCC[C@H](NC(=O)c1nc[nH]c1C(=O)N[C@@H](CCCCNC(=O)OC(C)(C)C)C(=O)OC(C)(C)C)C(=O)OC(C)(C)C
IC50 [6]: 3.89 µM (not active)

CN=C(S)NNC(=O)c1ccccc1F
IC50 [6]: 17.7 µM (not active)

CC(C)Cn1nc2c3c(ccc2c1O)C(=O)c1ccccc1C3=O
CC50 [5]: 16.4 µM (active)

C=CCn1c(SCC(=O)c2ccc(NS(=O)(=O)c3ccccc3)cc2)nnc1-c1cccs1
IC50 [4]: 14.7 µM (active)

O=C(CSc1nc[nH]n1)N1N=C2/C(=C/c3ccco3)CCCC2C1c1ccco1 (stereo not drawn)
IC50 [4]: 2.11 µM (active)

CCN(CC)C(=S)Sc1c(O)nc2ccc(Cl)cc2c1-c1ccccc1
EC50 [7]: 1.8 µM (active)
EC50 [8]: 0.831 µM (active)
AC50 [9]: 27 µM (active)

COc1ccccc1NC(=O)CSc1nc[nH]n1
IC50 [4]: 36.8 µM (active)

Cc1cc(C)c(C(=O)COC(=O)CCNS(=O)(=O)c2c(Cl)cccc2Cl)cc1C
IC50 [6]: 4.97 µM (not active)

Cn1c(N)c(C(=O)COC(=O)CCC2CCCCC2)c(=O)n(C)c1=O
IC50 [6]: 5.23 µM (active)

OC(CN1C2=NCCN2c2ccccc21)c1ccc2c(c1)OCO2 (stereo not drawn)
EC50 [1]: > 53 µM (inactive)
IC50 [2]: > 47.1 µM (inactive)

CCCCC(CC)C(=O)Oc1ccc(O)c(C(C)(C)C)c1 (stereo not drawn)
EC50 [7]: 7.84 µM (active)
EC50 [8]: 3.2 µM (active)
EC50 [10]: 4.96 µM (active)
IC50 [6]: 13.5 µM (not active)

CCOc1ccc(NC(=O)C2CC(C)=C(C)CC2C(=O)O)cc1 (stereo not drawn)
IC50 [4]: 21.3 µM (active)

COc1cc(N/C=C(\C(C)=O)c2ccccc2)cc(OC)c1
IC50 [6]: > 50 µM (not active)

COC(=O)CN1C(=O)COc2ccc(S(=O)(=O)NCc3ccc(Cl)cc3)cc21
EC50 [1]: > 53 µM (inactive)
IC50 [2]: > 47.1 µM (inactive)

O=C(NCCc1c[nH]c2ccccc12)OCCSS(=O)(=O)O
IC50 [4]: 21.8 µM (active)

CCCC(=O)NC(=S)Nc1ccc(N2CCN(C(=O)c3cccs3)CC2)cc1
AC50 [9]: 10.1 µM (active)
AC50 [11]: 10.7 µM (active)

Cc1nc(Nc2ccccc2)sc1C(=O)c1ccccc1
IC50 [6]: 3.41 µM (not active)

COc1ccc(NC(=O)CN2C(=O)C(C)SC(C)C2=O)cc1 (stereo not drawn)
IC50 [4]: 12.2 µM (active)

CC(=O)N1CCN(S(=O)(=O)c2cccc(C(=O)NCc3ccc(F)cc3)c2)CC1
EC50 [1]: > 53 µM (inactive)
IC50 [2]: > 47.1 µM (inactive)

COc1ccc(CCNC(=O)c2cccn2C)cc1
EC50 [1]: > 53 µM (inactive)
IC50 [2]: > 47.1 µM (inactive)

Cc1ccc(NC(=O)CCn2cc(C(F)(F)F)ccc2=O)cc1
EC50 [1]: > 53 µM (inactive)
IC50 [2]: > 47.1 µM (inactive)

COc1ccc(/C=N/NS(=O)(=O)c2ccccc2)cc1OC(=O)c1ccc(C)cc1
EC50 [1]: > 53 µM (inactive)
IC50 [2]: > 47.1 µM (inactive)

S=C(NCc1ccco1)N/N=C/c1ccc(Cl)cc1
EC50 [12]: > 260 µM (inactive)
IC50 [6]: 6.94 µM (not active)

O=C(N/N=C\c1cccc(Br)c1)c1ccccc1-n1cccc1
IC50 [6]: > 50 µM (not active)

CO[C@H]1CN(C)C(=O)c2ccc(NC(=O)Nc3cc(F)ccc3F)cc2OC[C@@H](C)N(C)C[C@H]1C
AC50 [13]: 11.4 µM (active)

C[C@H](CO)N1C[C@H](C)[C@H](CN(C)S(=O)(=O)c2ccccc2F)OCc2ccccc2-c2c(n(C)c3ccccc23)C1=O
AC50 [13]: 3.61 µM (active)

C[C@H]1CN([C@@H](C)CO)S(=O)(=O)c2ccc(C#Cc3ccncc3)cc2O[C@H]1CN(C)S(=O)(=O)c1ccc(F)cc1
AC50 [13]: 4.11 µM (active)

COc1ccc2c3c([nH]c2c1)[C@@H](CO)N(Cc1cccc(F)c1)CC31CCN(C(C)=O)CC1
AC50 [13]: 5.78 µM (active)

COc1ccc(S(=O)(=O)N(C)C[C@H]2Oc3c(NC(=O)Nc4ccc5c(c4)OCO5)cccc3C(=O)N([C@@H](C)CO)C[C@H]2C)cc1
AC50 [13]: 4.41 µM (active)
